Some test systems named below: MCF7; SF-268; UACC-62; Malme-3M; ACHN; SK-MEL-5; MDA-N; TK-10; HOP-92; HL-60; SK-MEL-28; UO-31; SF-295; NCI-H226; PC-3; NCI-H460; SR; MOLT-4; SN12C; U-251.
Test in all cases: inhibition of tumour cell growth, NCI panel, 48 h

Molecules are shown by their SMILES.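 Five compound concentrations were applied to cells in 96-well plates for 48 hours; endpoints were derived by simple linear interpolation of the resulting dose-response curve. The concentration for 50% growth inhibition is given as GI50.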 The source made the active and inactive calls. Rule as the data show it: active = GI50 up to about 1.1 µM and inactive = higher.

Consider `CN(C)c1ccc(/C=C(\C#N)c2nc(-c3cc4ccccc4oc3=O)cs2)cc1`, for which the GI50 with MCF7 was > 50 µM (inactive); in the assay on SF-268, 21 µM (inactive); with UACC-62, 8.61 µM (inactive); with Malme-3M it was 4.65 µM (inactive); in the assay with ACHN it was 13.3 µM (inactive); in the assay on SK-MEL-5, > 50 µM (inactive). Also, the GI50 in the assay on MDA-N is > 50 µM (inactive); in the assay with TK-10 it was 8.95 µM (inactive); with HOP-92 it was 5.12 µM (inactive); in the assay with HL-60 it was > 50 µM (inactive); with SK-MEL-28, > 50 µM (inactive); with UO-31, > 50 µM (inactive). For the same compound, the GI50 with SF-295 was 10.6 µM (inactive); with NCI-H226, 13.6 µM (inactive); in the assay on PC-3 it was > 50 µM (inactive); in the assay with NCI-H460, > 50 µM (inactive); with SR, > 50 µM (inactive); in the assay with MOLT-4 it was > 50 µM (inactive). Moreover, the GI50 with SN12C was > 50 µM (inactive); in the assay on U-251, 6.89 µM (inactive).
`COc1ccc(N2C(=O)C3c4[nH]c5ccc(OCc6ccccc6)cc5c4C4CCC(C(C)C)CC4C3C2=O)cc1` (configuration not stated): the GI50 with MCF7 is 99.1 µM (inactive); with SF-268, 17.2 µM (inactive); with UACC-62 it was 29 µM (inactive); in the assay on Malme-3M, 21 µM (inactive); in the assay with ACHN it was 10.8 µM (inactive); with SK-MEL-5, > 100 µM (inactive). Besides, the GI50 is > 100 µM (inactive) in the assay with MDA-N; > 30.3 µM (inactive) with TK-10; 32.1 µM (inactive) with HOP-92; 1.78 µM (inactive) in the assay with HL-60; > 100 µM (inactive) in the assay on SK-MEL-28; > 57.1 µM (inactive) in the assay with UO-31. In addition, the GI50 is 6.4 µM (inactive) in the assay on SF-295; 14.2 µM (inactive) in the assay with NCI-H226; > 89.9 µM (inactive) in the assay on PC-3; 13.9 µM (inactive) in the assay on NCI-H460; 4.41 µM (inactive) in the assay on SR; 18.2 µM (inactive) in the assay with MOLT-4. Further, the GI50 with SN12C was > 100 µM (inactive); in the assay on U-251, 10.8 µM (inactive).
Turning to `C=C(C)[C@@]1(O)CCCC[C@@H]1CC(Sc1ccccc1)Sc1ccccc1`, the GI50 with MCF7 is 24.7 µM (inactive); in the assay with SF-268, 15.7 µM (inactive); in the assay on UACC-62, 41.9 µM (inactive); in the assay with Malme-3M, 12.6 µM (inactive); in the assay on ACHN, 37.6 µM (inactive); in the assay on SK-MEL-5, 15.7 µM (inactive). Also, the GI50 is 20 µM (inactive) in the assay on MDA-N; 15.5 µM (inactive) in the assay on TK-10; 4.3 µM (inactive) in the assay with HOP-92; 15.2 µM (inactive) in the assay with HL-60; 18.1 µM (inactive) in the assay on SK-MEL-28; 16 µM (inactive) in the assay with UO-31. The GI50 was 16.6 µM (inactive) in the assay with SF-295; 16.3 µM (inactive) in the assay on NCI-H226; 16.3 µM (inactive) with PC-3; 13.9 µM (inactive) in the assay with NCI-H460; 14.1 µM (inactive) with SR; 9.08 µM (inactive) in the assay with MOLT-4. For the same compound, the GI50 with SN12C is 16.4 µM (inactive); in the assay on U-251 it was 21.1 µM (inactive).
With `CNC(=O)OCc1nc(N=[N+]=[N-])n(C)c1COC(=O)NC`, the GI50 in the assay with MCF7 is 38 µM (inactive); in the assay on SF-268, 32.1 µM (inactive); in the assay with Malme-3M, 55.7 µM (inactive); with ACHN, 33.4 µM (inactive); with SK-MEL-5 it was > 10 µM (inactive); in the assay with MDA-N, 60.4 µM (inactive). Besides, the GI50 with TK-10 was 32.2 µM (inactive); in the assay with HOP-92, 25.3 µM (inactive); with HL-60, 17.5 µM (inactive); with SK-MEL-28 it was > 100 µM (inactive); in the assay on UO-31, > 10 µM (inactive); in the assay with SF-295, 67.1 µM (inactive). Besides, the GI50 in the assay with NCI-H226 is > 100 µM (inactive); in the assay on PC-3, 96.2 µM (inactive); in the assay with NCI-H460, 29.6 µM (inactive); with SR it was 21.3 µM (inactive); in the assay with MOLT-4, 26 µM (inactive); with SN12C, 55.7 µM (inactive). Moreover, the GI50 in the assay on U-251 is 31.3 µM (inactive).
Turning to `CCSCC(=O)N1CCc2c([nH]c3ccccc23)C1=O`, the GI50 in the assay on MCF7 is 96.6 µM (inactive); in the assay with SF-268 it was > 100 µM (inactive); in the assay with UACC-62, 97.5 µM (inactive); with Malme-3M it was > 100 µM (inactive); in the assay on ACHN, > 100 µM (inactive); in the assay with SK-MEL-5, > 100 µM (inactive). The GI50 in the assay with MDA-N was > 100 µM (inactive); in the assay with TK-10 it was > 100 µM (inactive); in the assay on HOP-92, 22.9 µM (inactive); in the assay with HL-60, > 100 µM (inactive); in the assay with SK-MEL-28 it was > 100 µM (inactive); in the assay on UO-31 it was > 100 µM (inactive). For the same compound, the GI50 with SF-295, in the assay on NCI-H226, in the assay with PC-3, in the assay with NCI-H460, in the assay on SR and with MOLT-4 was > 100 µM (inactive) in each case. Moreover, the GI50 in the assay on SN12C and with U-251 was > 100 µM (inactive) in each case.
Take `COc1cccc(Nc2n[nH]c(NS(=O)(=O)c3cc(C)c(Cl)cc3S)n2)c1`: the GI50 in the assay on MCF7, in the assay with SF-268, with UACC-62, with Malme-3M, in the assay on ACHN and in the assay on SK-MEL-5 was > 100 µM (inactive) in each case. In addition, the GI50 with MDA-N, in the assay with TK-10, in the assay on HOP-92, in the assay with HL-60, in the assay with SK-MEL-28 and in the assay on UO-31 was > 100 µM (inactive) each time. The GI50 with SF-295, in the assay with NCI-H226, with PC-3, in the assay on NCI-H460, with SR and with MOLT-4 was > 100 µM (inactive) each time. Also, the GI50 with SN12C and in the assay with U-251 was > 100 µM (inactive) throughout.
Take `CC(=C(C(=O)O)C(=O)O)c1cc(-c2cccs2)cc(-c2ccc(Cl)cc2)c1O`: the GI50 with MCF7 is 5.47 µM (inactive); in the assay on SF-268, 17.9 µM (inactive); with UACC-62, 15.3 µM (inactive); in the assay on Malme-3M, 21.6 µM (inactive); in the assay with ACHN, 15.8 µM (inactive); in the assay with SK-MEL-5, 19.3 µM (inactive). Further, the GI50 in the assay with MDA-N is 16.3 µM (inactive); in the assay on TK-10, 16.2 µM (inactive); in the assay on HOP-92 it was 14.9 µM (inactive); with HL-60, 9.71 µM (inactive); in the assay with SK-MEL-28, 17.5 µM (inactive); in the assay on UO-31 it was 11.9 µM (inactive). Further, the GI50 in the assay with SF-295 was 17.9 µM (inactive); in the assay on NCI-H226, 21.2 µM (inactive); in the assay with PC-3, 13.6 µM (inactive); with NCI-H460 it was 17.1 µM (inactive); in the assay with SR, 3.67 µM (inactive); with MOLT-4 it was 6.41 µM (inactive). The GI50 in the assay on SN12C was 15.9 µM (inactive); in the assay with U-251, 14.3 µM (inactive).
Consider `c1ccc([P+](CC[P+](c2ccccc2)(c2ccccc2)c2ccccc2)(c2ccccc2)c2ccccc2)cc1`, for which the GI50 with MCF7 is 32.1 µM (inactive); in the assay on SF-268, 6.05 µM (inactive); with UACC-62, 25.6 µM (inactive); with Malme-3M, 14.1 µM (inactive); in the assay with ACHN it was 19.2 µM (inactive); with SK-MEL-5 it was 8.79 µM (inactive). Also, the GI50 was 14.4 µM (inactive) in the assay on MDA-N; 12.3 µM (inactive) in the assay with TK-10; 32.6 µM (inactive) with HOP-92; 0.396 µM (active) with HL-60; 13.7 µM (inactive) in the assay with SK-MEL-28; > 46.1 µM (inactive) in the assay with UO-31. Also, the GI50 in the assay on SF-295 is 33.7 µM (inactive); in the assay on NCI-H226, > 56.8 µM (inactive); in the assay with PC-3, 6.27 µM (inactive); in the assay on NCI-H460, 5.79 µM (inactive); in the assay with SR it was 14.7 µM (inactive); in the assay with MOLT-4 it was 12.6 µM (inactive). Further, the GI50 with SN12C is 9.31 µM (inactive); with U-251 it was 2.94 µM (inactive).
As to `COc1cc(Cc2cc3c(c(C(=O)O)c2Br)OCO3)cc(OC)c1OC`, the GI50 with MCF7 is 62.1 µM (inactive); in the assay on UACC-62, 33.5 µM (inactive); in the assay with Malme-3M, 57.8 µM (inactive); with ACHN it was > 100 µM (inactive); in the assay on SK-MEL-5, 51.1 µM (inactive); in the assay with MDA-N, 23.8 µM (inactive). The GI50 in the assay with TK-10 was > 100 µM (inactive); with HOP-92, 55.5 µM (inactive); in the assay with HL-60, 21.7 µM (inactive); with SK-MEL-28, > 100 µM (inactive); with UO-31 it was > 100 µM (inactive); with SF-295, > 100 µM (inactive). For the same compound, the GI50 in the assay with NCI-H226 is > 100 µM (inactive); with PC-3 it was > 100 µM (inactive); with NCI-H460, > 100 µM (inactive); with SR, 52.6 µM (inactive); with MOLT-4 it was 56.8 µM (inactive); with SN12C, > 100 µM (inactive). Further, in the assay on U-251, the GI50 is > 100 µM (inactive).
As for `CCN(CCCN(CC)C(=O)Nc1ccccc1)C(=O)Nc1ccccc1`, the GI50 is > 100 µM (inactive) in the assay on MCF7; > 100 µM (inactive) with UACC-62; 66.1 µM (inactive) in the assay with Malme-3M; > 100 µM (inactive) in the assay on ACHN; > 100 µM (inactive) with SK-MEL-5; > 100 µM (inactive) with MDA-N. In addition, the GI50 with TK-10, with HOP-92, with HL-60, in the assay on SK-MEL-28, in the assay on UO-31 and with SF-295 was > 100 µM (inactive) in each case. Moreover, the GI50 in the assay on NCI-H226, in the assay on PC-3, with NCI-H460, with SR, in the assay on MOLT-4 and with SN12C was > 100 µM (inactive) each time. The GI50 with U-251 was > 100 µM (inactive).

For the origin of these results see ChEMBL document CHEMBL1201862, “PubChem BioAssay data set” (2004).
